Test results from PubChem BioAssay AID1963963 (Molecular Pharmacology Branch, DTP, NCI, 2024).

Tested on: 958667-338-R-J2-PDC tumor spheroids viability
Test: Anticancer human tumor 958667-338-R-J2-PDC patient-derived colon adenocarcinoma cell line growth inhibition [PI3K]
Details: spheroids with HUVEC and MSC; for IC50: curve of first compound; for viability, T/C: stronger effect = lower value; active = viability on the fitted dose curve at most 10% of control; inactive = the rest
Outline: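 Targeted small molecules plus PI3K inhibitors, half-log dose series from Cmax (default top 10 microM), were applied to heterotypic spheroids of cancer cells with HUVEC and MSCs. Viability indicated growth inhibition.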

[1] = second compound 0.0316 µM, first compound 0.0316 µM
[2] = second compound 0.0316 µM, first compound 0.1 µM
[3] = second compound 0.0316 µM, first compound 0.316 µM
[4] = second compound 0.0316 µM, first compound 1 µM
[5] = second compound 0.0316 µM, first compound 3.16 µM
[6] = second compound 0.0316 µM, first compound 10 µM
[7] = second compound 0.1 µM, first compound 0.0316 µM
[8] = second compound 0.1 µM, first compound 0.1 µM
[9] = second compound 0.1 µM, first compound 0.316 µM
[10] = second compound 0.1 µM, first compound 1 µM
[11] = second compound 0.1 µM, first compound 3.16 µM
[12] = second compound 0.1 µM, first compound 10 µM
[13] = second compound 0.316 µM, first compound 0.0316 µM
[14] = second compound 0.316 µM, first compound 0.1 µM
[15] = second compound 0.316 µM, first compound 0.316 µM
[16] = second compound 0.316 µM, first compound 1 µM
[17] = second compound 0.316 µM, first compound 3.16 µM
[18] = second compound 0.316 µM, first compound 10 µM
[19] = second compound 1 µM, first compound 0.0316 µM
[20] = second compound 1 µM, first compound 0.1 µM
[21] = second compound 1 µM, first compound 0.316 µM
[22] = second compound 1 µM, first compound 1 µM
[23] = second compound 1 µM, first compound 3.16 µM
[24] = second compound 1 µM, first compound 10 µM
[25] = second compound 3.16 µM, first compound 0.0316 µM
[26] = second compound 3.16 µM, first compound 0.1 µM
[27] = second compound 3.16 µM, first compound 0.316 µM
[28] = second compound 3.16 µM, first compound 1 µM
[29] = second compound 3.16 µM, first compound 3.16 µM
[30] = second compound 3.16 µM, first compound 10 µM
[31] = second compound 10 µM, first compound 0.0316 µM
[32] = second compound 10 µM, first compound 0.1 µM
[33] = second compound 10 µM, first compound 0.316 µM
[34] = second compound 10 µM, first compound 1 µM
[35] = second compound 10 µM, first compound 3.16 µM
[36] = second compound 10 µM, first compound 10 µM
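Also: spheroids exposed to compounds for seven days before readout.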

CC1(C)CCC(CN2CCN(c3ccc(C(=O)NS(=O)(=O)c4ccc(NCC5CCOCC5)c([N+](=O)[O-])c4)c(Oc4cnc5[nH]ccc5c4)c3)CC2)=C(c2ccc(Cl)cc2)C1 + CC(Nc1ncnc2nc[nH]c12)c1cc2cccc(Cl)c2c(=O)n1-c1ccccc1
inactive: viability, T/C [1] 107% | viability, T/C [2] 93.6% | viability, T/C [3] 101% | viability, T/C [4] 93% | viability, T/C [5] 119% | viability, T/C [6] 69.9% | viability, T/C [7] 96.3% | viability, T/C [8] 102% | viability, T/C [9] 90.6% | viability, T/C [10] 94.6% | viability, T/C [11] 107% | viability, T/C [12] 51.2% | viability, T/C [13] 101% | viability, T/C [14] 106% | viability, T/C [15] 104% | viability, T/C [16] 116% | viability, T/C [17] 105% | viability, T/C [18] 80.3% | viability, T/C [19] 90.1% | viability, T/C [20] 96.2% | viability, T/C [21] 100% | viability, T/C [22] 100% | viability, T/C [23] 101% | viability, T/C [24] 76.8% | viability, T/C [25] 93.4% | viability, T/C [26] 108% | viability, T/C [27] 94.4% | viability, T/C [28] 93.1% | viability, T/C [29] 99.9% | viability, T/C [30] 54.5% | viability, T/C [31] 93.2% | viability, T/C [32] 84.3% | viability, T/C [33] 101% | viability, T/C [34] 88% | viability, T/C [35] 97.7% | viability, T/C [36] 68.2%
> 10 µM: IC50 (second compound 0.0316 µM) | IC50 (second compound 0.1 µM) | IC50 (second compound 0.316 µM) | IC50 (second compound 1 µM) | IC50 (second compound 3.16 µM) | IC50 (second compound 10 µM)

C[C@@H](NC(=O)c1ncnc(N)c1Cl)c1ncc(C(=O)Nc2cc(C(F)(F)F)c(Cl)cn2)s1 + CC(Nc1ncnc2nc[nH]c12)c1cc2cccc(Cl)c2c(=O)n1-c1ccccc1
> 10 µM: IC50 (second compound 0.0316 µM) | IC50 (second compound 0.1 µM) | IC50 (second compound 0.316 µM) | IC50 (second compound 1 µM) | IC50 (second compound 3.16 µM) | IC50 (second compound 10 µM)
inactive: viability, T/C [1] 129% | viability, T/C [2] 114% | viability, T/C [3] 99.7% | viability, T/C [4] 95.9% | viability, T/C [5] 84.1% | viability, T/C [6] 74.9% | viability, T/C [7] 98% | viability, T/C [8] 115% | viability, T/C [9] 99.9% | viability, T/C [10] 108% | viability, T/C [11] 97.6% | viability, T/C [12] 73.3% | viability, T/C [13] 98.2% | viability, T/C [14] 106% | viability, T/C [15] 96.3% | viability, T/C [16] 102% | viability, T/C [17] 94.3% | viability, T/C [18] 94.3% | viability, T/C [19] 83.7% | viability, T/C [20] 93.3% | viability, T/C [21] 102% | viability, T/C [22] 100% | viability, T/C [23] 89.1% | viability, T/C [24] 73.2% | viability, T/C [25] 112% | viability, T/C [26] 89% | viability, T/C [27] 96.1% | viability, T/C [28] 82.6% | viability, T/C [29] 99.4% | viability, T/C [30] 75.5% | viability, T/C [31] 110% | viability, T/C [32] 98.5% | viability, T/C [33] 96.5% | viability, T/C [34] 96.1% | viability, T/C [35] 92.9% | viability, T/C [36] 107%
